Laboratory results: patent EP4763839A1 (Pamplona Therapeutics (Shenzhen) Co., Ltd., priority 2023, dated 2025)
Counter-ions that a name gives are not always drawn. Like-named read-outs stand apart in the source and are kept apart here.

Target: T1, IRAK4 (Homo sapiens, UniProt Q9NWZ3)
T1 sequence (Q9NWZ3 1-460): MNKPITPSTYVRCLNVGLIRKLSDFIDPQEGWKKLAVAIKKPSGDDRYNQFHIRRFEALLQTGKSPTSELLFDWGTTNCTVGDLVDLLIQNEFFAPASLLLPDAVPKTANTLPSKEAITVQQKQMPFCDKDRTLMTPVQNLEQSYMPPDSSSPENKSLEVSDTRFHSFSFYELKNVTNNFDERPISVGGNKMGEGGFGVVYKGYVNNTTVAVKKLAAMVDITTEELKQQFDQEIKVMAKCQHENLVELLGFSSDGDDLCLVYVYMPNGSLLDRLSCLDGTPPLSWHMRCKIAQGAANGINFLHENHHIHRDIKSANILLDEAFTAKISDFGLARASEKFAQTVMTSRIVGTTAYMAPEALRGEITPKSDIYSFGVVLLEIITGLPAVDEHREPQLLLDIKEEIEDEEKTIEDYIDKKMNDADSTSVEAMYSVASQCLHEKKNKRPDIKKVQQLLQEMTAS
Experiment: Degradation of IRAK4 in THP1 cells, Western blot
Assay type: cell-based
Design: Degradation of IRAK4 in THP1 by compound; host or cells: THP-1
Description: After 24 hours of incubation, the cells were collected into 1.5 mL centrifuge tubes and centrifuged at 1,000 rpm for 5 minutes. […] The supernatants were collected, and the IRAK4 protein levels were respectively detected by Western blot (WB). The total protein concentration in the cell lysate supernatant was determined using a BCA protein quantification kit (NCM). Based on the total protein concentration detected by BCA, the samples were adjusted to 2 μg/μL using cell lysis buffer and 5×SDS-PAGE protein loading buffer (Beyotime), heated at 95°C for 5 minutes in a metal bath, and then placed on ice for an ice bath for 5 minutes before being used as the loading samples for Western blot analysis. Protein electrophoresis was performed using a 10% SDS-PAGE gel with a loading volume of 20 μL (total protein 40 μg) and Tris-SDS electrophoresis at a constant voltage of 80 V. After electrophoresis, the proteins on the gel were transferred to a 0.2 μm PVDF membrane (Immobilon) using a semi-dry transfer method at 0.5 A and 20 V for 60 minutes. After transfer, the membrane was placed in 5% skimmed milk and incubated at rt for 2 hours. After blocking, the PVDF membrane was incubated with primary antibody against IRAK4 (Abcam) at 4°C overnight. […] The color development and protein band imaging were performed using a chemiluminescence imaging system ([…] Technology Co., Ltd.). The protein bands were analyzed for grayscale values using Image J analysis software. The corrected grayscale values for each sample were calculated and then compared with those of the control group treated with DMSO alone to calculate the degradation rate.

[1] = THP-1 cells, 24 hours of incubation, IRAK4 protein by Western blot, read-out: DC50
[2] = maximum degradation rate, THP-1 cells, 24 hours of incubation, read-out: Dmax

Structure (SMILES) | DC50 [1] | Dmax [2] | DC50 | Dmax (THP-1) | Dmax (maximum degradation rate, THP-1 cells, 24 hours of incubation)
Cn1c(-c2ccc(N3CCC(CCN4CCN(c5ccc(-n6cc(NC(=O)c7cccc(C(F)(F)F)n7)c(C(N)=O)n6)cc5)CC4)C3)cc2)nn(C2CCC(=O)NC2=O)c1=O (stereo not drawn) [Compound A185] | < 100 nM | 40 to 60% |  |  | 
Cn1c(=O)n(C2CCC(=O)NC2=O)c2cccc(N3CCC(CN4CCN(c5ccc(-n6cc(NC(=O)c7cccc(C(F)(F)F)n7)c(C(N)=O)n6)cc5)CC4)C(F)(F)C3)c21 (stereo not drawn) [Compound A298, N-(3-Carbamoyl-1-(4-(4-((1-(1-(2,6-dioxopiperidin-3-yl)-3-methyl-2-oxo-2,3-dihydro-1H-benzo[d]imidazol-4-yl)-3,3-difluoropiperidin-4-yl)methyl)piperazin-1-yl)phenyl)-1H-pyrazol-4-yl)-6-(trifluoromethyl)picolinamide] | < 100 nM | > 60% |  |  | 
Cn1c(=O)n(C2CCC(=O)NC2=O)c2ccc(N3CCC(CN4CCN(c5ccc(-n6cc(NC(=O)c7cccc(C(F)(F)F)n7)c(C(N)=O)n6)cc5)CC4)C(F)(F)C3)cc21 (stereo not drawn) [Compound A299, N-(3-Carbamoyl-1-(4-(4-((1-(1-(2,6-dioxopiperidin-3-yl)-3-methyl-2-oxo-2,3-dihydro-1H-benzo[d]imidazol-5-yl)-3,3-difluoropiperidin-4-yl)methyl)piperazin-1-yl)phenyl)-1H-pyrazol-4-yl)-6-(trifluoromethyl)picolinamide] | < 100 nM | > 60% |  |  | 
Cn1c(=O)n(C2CCC(=O)NC2=O)c2cccc(N3CCC(CCN4CCN(c5ccc(-n6cc(NC(=O)c7cccc(C(F)(F)F)n7)c(C(N)=O)n6)cc5)CC4)C(F)(F)C3)c21 (stereo not drawn) [Compound A300] |  |  | < 100 nM | > 60% | 
Cn1c(=O)n(C2CCC(=O)NC2=O)c2ccc(N3CCC(CN4CCN(c5ccc(-n6cc(NC(=O)c7cccc(C(F)(F)F)n7)c(C(N)=O)n6)cc5)CC4)C3)cc21 (stereo not drawn) [Compound A304, N-(3-carbamoyl-1-(4-(4-((1-(1-(2,6-dioxopiperidin-3-yl)-3-methyl-2-oxo-2,3-dihydro-1H-benzo[d]imidazol-5-yl)pyrrolidin-3-yl)methyl)piperazin-1-yl)phenyl)-1H-pyrazol-4-yl)-6-(trifluoromethyl)picolinamide] | < 100 nM | 40 to 60% |  |  | 
Cn1c(=O)n(C2CCC(=O)NC2=O)c2cccc(N3CCC(CN4CCN(c5ccc(-n6cc(NC(=O)c7cccc(C(F)(F)F)n7)c(C(N)=O)n6)cc5)CC4)C3)c21 (stereo not drawn) [Compound A305, N-(3-carbamoyl-1-(4-(4-((1-(1-(2,6-dioxopiperidin-3-yl)-3-methyl-2-oxo-2,3-dihydro-1H-benzo[d]imidazol-4-yl)pyrrolidin-3-yl)methyl)piperazin-1-yl)phenyl)-1H-pyrazol-4-yl)-6-(trifluoromethyl)picolinamide] | 100 to 1000 nM | 40 to 60% |  |  | 
COc1ccc(C(=O)N2CCC(CN3CCN(C(=O)c4ccc(-n5cc(NC(=O)c6cccc(C(F)(F)F)n6)c(C(N)=O)n5)cc4)CC3)C2)cc1N1CCC(=O)NC1=O (stereo not drawn) [Compound A313, N-(3-carbamoyl-1-(4-((1-(3-(2,4-dioxotetrahydropyrimidin-1(2H)yl)-4-methoxybenzoyl)pyrrolidin-3-yl)methyl)piperazine-1-carbonyl)phenyl)-1H-pyrazol-4-yl)-6-(trifluoromethyl)picolinamide trifluoroacetate] | 100 to 1000 nM | > 60% |  |  | 
CN(Cc1ccc(-n2cc(NC(=O)c3cccc(C(F)(F)F)n3)c(C(N)=O)n2)cc1)C1CC2(CCN(c3cccc4c3n(C)c(=O)n4C3CCC(=O)NC3)CC2)C1 (stereo not drawn) [Compound A315] | 100 to 1000 nM |  |  |  | A (A represents Dmax > 60%)
Cn1c(=O)n(C2CCC(=O)NC2=O)c2cccc(N3CCC4(CC3)CN(CCc3ccc(-n5cc(NC(=O)c6cccc(C(F)(F)F)n6)c(C(N)=O)n5)cc3)C4)c21 (stereo not drawn) [Compound A316, N-(3-carbamoyl-1-(4-(2-(7-(1-(2,6-dioxopiperidin-3-yl)-3-methyl-2-oxo-2,3-dihydro-1H-benzo[d]imidazol-4-yl)-2,7-diazaspiro[3.5]nonan-2-yl)ethyl)phenyl)-1H-pyrazol-4-yl)-6-(trifluoromethyl)picolinamide] | < 100 nM | > 60% |  |  | 
NC(=O)c1nn(-c2ccc(COC3CC4(CCN(CC5CCN(c6ccc(NC7CCC(=O)NC7=O)cc6F)CC5)CC4)C3)cc2)cc1NC(=O)c1cccc(C(F)(F)F)n1 (stereo not drawn) [Compound A317, N-(3-Carbamoyl-1-(4-(((7-((1-(4-((2,6-dioxopiperidin-3-yl)amino)-2-fluorophenyl)piperidin-4-yl)methyl)-7-azaspiro[3.5]nonan-2-yl)oxy)methyl)phenyl)-1H-pyrazol-4-yl)-6-(trifluoromethyl)picolinamide] | < 100 nM | > 60% |  |  | 
COc1ccc(C(=O)N2CCC3(CC2)CC(Cc2ccc(-n4cc(NC(=O)c5cccc(C(F)(F)F)n5)c(C(N)=O)n4)cc2)C3)cc1N1CCC(=O)NC1=O [Compound A318, N-(3-Carbamoyl-1-(4-((7-(3-(2,4-dioxotetrahydropyrimidin-1(2H)-yl)-4-methoxybenzoyl)-7-azaspiro[3.5]nonan-2-yl)methyl)phenyl)-1H-pyrazol-4-yl)-6-(trifluoromethyl)picolinamide] | < 100 nM | > 60% |  |  | 
Cn1c(=O)n(C2CCC(=O)NC2=O)c2cccc(N3CCC4(CC3)CN(Cc3ccc(-n5cc(NC(=O)c6cccc(C(F)(F)F)n6)c(C(N)=O)n5)cc3)C4)c21 (stereo not drawn) [Compound A319, N-(3-carbamoyl-1-(4-((7-(1-(2,6-dioxopiperidin-3-yl)-3-methyl-2-oxo-2,3-dihydro-1H-benzo [d]imidazol-4-yl)-2,7-diazaspiro[3.5]nonan-2-yl)methyl)phenyl)-1H-pyrazol-4-yl)-6-(trifluoromethyl)picolinamide] | 100 to 1000 nM | 40 to 60% |  |  | 
Cn1c(=O)n(C2CCC(=O)NC2=O)c2cccc(N3CCC4(CC3)CC(NC(=O)c3ccc(-n5cc(NC(=O)c6cccc(C(F)(F)F)n6)c(C(N)=O)n5)cc3)C4)c21 (stereo not drawn) [Compound A320] | < 100 nM | > 60% |  |  | 
Cn1c(=O)n(C2CCC(=O)NC2=O)c2cccc(N3CCC4(CC3)CN(C(=O)Cc3ccc(-n5cc(NC(=O)c6cccc(C(F)(F)F)n6)c(C(N)=O)n5)cc3)C4)c21 (stereo not drawn) [Compound A321, N-(3-Carbamoyl-1-(4-(2-(7-(1-(2,6-dioxopiperidin-3-yl)-3-methyl-2-oxo-2,3-dihydro-1H-benzimidazol-4-yl)-2,7-diazaspiro[3.5]nonan-2-yl)-2-oxoethyl)phenyl)-1H-pyrazol-4-yl)-6-(trifluoromethyl)picolinamide] | < 100 nM | > 60% |  |  | 
Cn1c(=O)n(C2CCC(=O)NC2=O)c2cccc(N3CCC4(CC3)CC(NCc3ccc(-n5cc(NC(=O)c6cccc(-c7ccn[nH]7)n6)c(S(N)(=O)=O)n5)cc3)C4)c21 (stereo not drawn) [Compound A322, N-(1-(4-(((7-(1-(2,6-dioxopiperidin-3-yl)-3-methyl-2-oxo-2,3-dihydro-1H-benzo[d]imidazol-4-yl)-7-azaspiro[3.5]nonan-2-yl)amino)methyl)phenyl)-3-sulfamoyl-1H-pyrazol-4-yl)-6-(1H-pyrazol-5-yl)picolinamide] | < 100 nM | > 60% |  |  | 
COc1ccc(C(=O)N2CCC(CCN3CCN(c4ccc(-n5cc(NC(=O)c6cccc(-c7ccn[nH]7)n6)c(S(N)(=O)=O)n5)cc4)CC3)CC2)cc1N1CCC(=O)NC1=O [Compound A324] | < 100 nM | > 60% |  |  | 
NS(=O)(=O)c1nn(-c2ccc(N3CCN(CC4CCN(c5ccc(NC6CCC(=O)NC6=O)cc5F)CC4)CC3)cc2)cc1NC(=O)c1cccc(-c2ccn[nH]2)n1 (stereo not drawn) [Compound A325, N-(1-(4-(4-((1-(-4-((2,6-dioxopiperidin-3-yl)amino)-2-fluorophenyl)piperidin-4-yl)methyl)piperazin-1-yl)phenyl)-3-sulfamoyl-1H-pyrazol-4-yl)-6-(1H-pyrazol-5-yl)picolinamide] | < 100 nM | > 60% |  |  | 
Cn1c(=O)n(C2CCC(=O)NC2=O)c2ccc(N3CCC(CN4CCN(c5ccc(-n6cc(NC(=O)c7cccc(-c8ccn[nH]8)n7)c(S(N)(=O)=O)n6)cc5)CC4)CC3)cc21 (stereo not drawn) [Compound A326, N-[3-(aminodioxyylidene-λ6-thio)-1-{4-[4-({1-[1-(2,6-dioxopiperidin-3-yl)-3-methyl-2-oxobenzo[d]imidazol-5-yl]piperidin-4-yl}methyl)piperazin-1-yl]phenyl}pyrazol-4-yl]-6-(2H-pyrazol-3-yl)pyridine-2-carboxamide] | < 100 nM | > 60% |  |  | 
